As a reminder, the ΔTm is the change in melting temperature against a reference sample.

For assay [1], the system named is poly[d(G-C)2] (DNA, polymer) GC. Kind of assay: circular dichroism. The settings on record: 25 mM NaCl; 10 mM phosphate, pH 7.0; ~100 μM bp DNA; intercalation. A general note: Circular dichroism is the unequal absorption of left and right circularly polarised light.
Assay [2] has the same test system. Kind of assay: UV melting, 260 nm. To be noted: per base.
Assay [3] relates to poly[d(A-T)2] (DNA, polymer) AT. In words: circular dichroism. The settings on record: 25 mM NaCl; 10 mM phosphate, pH 7.0; ~100 μM bp DNA; minor groove.
Assay [4] deals with poly[d(G-C)2] (DNA, polymer) GC. In words: ethidium bromide displacement fluorescence. The settings on record: apparent, per base pair, ethidium displaced, buffer as in cited literature.
In assay [5] the test system is poly[d(A-T)2] (DNA, polymer) AT. Kind of assay: ethidium bromide displacement fluorescence. To be noted: apparent; per base pair; ethidium displaced; slightly lower than with poly[d(G-C)2].

`CC[n+]1c(-c2ccccc2)c2cc(N)ccc2c2ccc(N)cc21`: the binding entry in assay [1] is given as “yes”.

Turning to `CN(C)c1ccc(C(=C2C=CC(=[N+](C)C)C=C2)c2ccc([N+](C)(C)C)cc2)cc1`, the ΔTm result in assay [2] (compound ratio for methyl green not stated in material) was “+5.2 °C”.

Take `Cn1cc(NC(=O)c2cc(NC(=O)CN=C(N)N)cn2C)cc1C(=O)NCCC(=N)N`: the binding result in assay [3] is recorded as “yes”.

Consider `[Cl-].[Cl-].[Cl-].[Cl-].[Cu+2].[Cu+2].c1ccc(CN(Cc2ccc3ccc(CN(Cc4ccccn4)Cc4ccccn4)cc3c2)Cc2ccccn2)nc1`, for which the ΔTm in assay [2] (r = 0.1, biphasic, first derivative transition d1, second transition d2 -1.5 ± 1.2 °C) was -18.5 ± 1.2 °C. Besides, in assay [4], the Kapp is recorded as ~ 1 × 10^7 M(bp)^−1. For the same molecule, the binding result in assay [5] is “yes”.

The record behind these values is paper PMC6212767 (2018).
